Test results reported in paper PMC6421079 (European neuropsychopharmacology : the journal of the …, 2018).
Where two headings read alike, the source gives them in different places. Where no end group is shown, it is not given here.

Key:
[1] = tested on: δ opioid receptors (δ-ORs); conditions: synthetic analog of rubiscolin-6; ref Yang et al., 2003b; cited from earlier work
[2] = ref Groer et al., 2007; cited from earlier work
δ-ORs = conditions: ref Chiang et al., 2016; Molinari et al., 2010; cited from earlier work
δ-OR = δ-OR (Homo sapiens, UniProt P41143); experiment: Radioligand binding assay: displacement of [^3H]DPDPE
humanδ-OR / β-arrestin 2 = humanδ-OR / β-arrestin 2 (Homo sapiens, UniProt P41143); experiment: β-arrestin 2 recruitment, CHO-humanδ-OR PathHunter cells; assay type: cell-based; conditions: for efficacy α β-arrestin2: normalized to leu-enkephalin, mean ± SEM
[3] = cited from earlier work

humanδ-OR / β-arrestin 2, sequence (P41143 whole entry): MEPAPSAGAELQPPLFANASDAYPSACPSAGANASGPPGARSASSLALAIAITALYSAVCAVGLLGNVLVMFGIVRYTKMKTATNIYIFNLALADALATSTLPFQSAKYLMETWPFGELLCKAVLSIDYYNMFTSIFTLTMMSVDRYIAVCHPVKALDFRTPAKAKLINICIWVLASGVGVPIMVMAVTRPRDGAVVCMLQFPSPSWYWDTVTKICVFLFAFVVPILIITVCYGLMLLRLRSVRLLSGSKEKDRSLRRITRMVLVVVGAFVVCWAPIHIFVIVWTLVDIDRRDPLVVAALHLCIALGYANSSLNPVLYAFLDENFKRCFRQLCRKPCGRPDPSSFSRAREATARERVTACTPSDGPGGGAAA
δ-OR, sequence (P41143 whole entry): as above

For YPLDLV, the “potency and δ-OR selectivity, in words” value [1] is listed as “more potent and δ-OR-selective”.

In the case of `COC(=O)[C@@H]1C[C@H](OC(=O)c2ccccc2)C(=O)[C@H]2[C@@]1(C)CC[C@H]1C(=O)O[C@H](c3ccoc3)C[C@]21C` [herkinorin], the “G protein bias, in words” value [2] is listed as “G protein-biased”.

In the case of DPDPE, the “β-arrestin recruitment, in words” value (δ-ORs) is given as “strongly recruit β-arrestin”.

For YPLDL [Rubiscolin-5], the Ki (δ-OR) was 3.16 µM, the EC50 (humanδ-OR / β-arrestin 2) was 79.4 µM and the “efficacy α β-arrestin2” value (humanδ-OR / β-arrestin 2) was 15±4.

In the case of DADLE, the “β-arrestin recruitment, in words” value (δ-ORs) is given as “strongly recruit β-arrestin”.

For `COc1ccsc1CNCC[C@@]1(c2ccccn2)CCOC2(CCCC2)C1` [TRV130], the side effect profile ([3]; ref DeWire et al., 2013) is listed as “appear to possess a reduced side effect profile”.

In the case of `C[C@@H](Cc1ccsc1)NC(=O)NC[C@H](Cc1ccc(O)cc1)N(C)C` [PZM21], the side effect profile ([3]; ref Manglik et al., 2016) is given as “appear to possess a reduced side effect profile”.

With YPLDLF [Rubiscolin-6] the Ki (δ-OR) was 1 µM, the EC50 (humanδ-OR / β-arrestin 2) was 7.94 µM and the “efficacy α β-arrestin2” value (humanδ-OR / β-arrestin 2) was 20±3.
